Values quoted from earlier work in patent US8273685B2, “Agrochemical composition” (Nippon Soda Co., Ltd., priority 2006, dated 2012).

Details: 1-octanol/water

SMILES	Log P
Cc1c(F)c(F)c(COC(=O)[C@@H]2[C@H](/C=C(\Cl)C(F)(F)F)C2(C)C)c(F)c1F (racemic) [Tefluthrin, 2,3,5,6-tetrafluoro-4-methylbenzyl (1RS,3RS)-3-[(Z)-2-chloro-3,3,3-trifluoroprop-1-enyl]-2,2-dimethylcyclopropanecarboxylat]	6.5
O=C(NC(=O)c1c(F)cccc1F)Nc1ccc(Cl)c(Oc2ncc(C(F)(F)F)cc2Cl)c1 [Fluazuron, 1-[4-chloro-3-(3-chloro-5-trifluoromethyl-2-pyridyloxy)phenyl]-3-(2,6-difluorobenzoyl)urea]	5.1
CCN(Cc1c(F)cccc1Cl)c1c([N+](=O)[O-])cc(C(F)(F)F)cc1[N+](=O)[O-] [Flumetralin, N-(2-chloro-6-fluorobenzyl)-N-ethyl-alpha,alpha,alpha-trifluoro-2,6-dinitro-p-toluidine]	> 3
O=C(NC(=O)c1c(F)cccc1F)Nc1cc(Cl)c(OC(F)(F)C(F)F)c(Cl)c1 [Hexaflumuron, 1-[3,5-dichloro-4-(1,1,2,2-tetrafluoroethoxy)phenyl]-3-(2,6-difluorobenzoyl)urea]	4.68
COC(=O)c1c(C(F)F)nc(C(F)(F)F)c(C2=NCCS2)c1CC(C)C [Thiazopyr, methyl 2-difluoromethyl-5-(4,5-dihydro-1,3-triazol-2-yl)-4-isobutyl-6-trifluoromethylnicotinate]	3.89
